# Legend:
# [1] = target: Tyrosine-protein kinase Tec (Homo sapiens) (UniProt P42680)
# [2] = target: Serine/threonine-protein kinase Nek7 (Homo sapiens) (UniProt Q8TDX7)
# [3] = system: Tyrosine-protein kinase ABL1 (Homo sapiens), P00519 [Q252H]
# [4] = target: Serine/threonine-protein kinase PAK 2 (Homo sapiens) (UniProt Q13177)
# [5] = target: Serine/threonine-protein kinase DCLK1 (Homo sapiens) (UniProt O15075)
# [6] = target: STE20-like serine/threonine-protein kinase (Homo sapiens) (UniProt Q9H2G2)
# [7] = target: Tyrosine-protein kinase ABL2 (Homo sapiens) (UniProt P42684)
# [8] = target: Serine/threonine-protein kinase Nek6 (Homo sapiens) (UniProt Q9HC98)
# [9] = target: Serine/threonine-protein kinase ICK (Homo sapiens) (UniProt Q9UPZ9)
# [10] = target: Insulin-like growth factor 1 receptor (Homo sapiens) (UniProt P08069)
# [11] = target: High affinity nerve growth factor receptor (Homo sapiens) (UniProt P04629)
# [12] = target: Ribosomal protein S6 kinase alpha-2 (Homo sapiens) (UniProt Q15349)
# [13] = system: Receptor-type tyrosine-protein kinase FLT3 (Homo sapiens), P36888 [D835Y]
# [14] = target: Serine/threonine-protein kinase WNK2 (Homo sapiens) (UniProt Q9Y3S1)
# [15] = target: Leukocyte tyrosine kinase receptor (Homo sapiens) (UniProt P29376)
# [16] = system: Mast/stem cell growth factor receptor Kit (Homo sapiens), P10721 [V559D,T670I]
# [17] = target: Serine/threonine-protein kinase RIO1 (Homo sapiens) (UniProt Q9BRS2)
# [18] = target: Mitogen-activated protein kinase 12 (Homo sapiens) (UniProt P53778)
# [19] = target: Homeodomain-interacting protein kinase 1 (Homo sapiens) (UniProt Q86Z02)
# [20] = system: Receptor-type tyrosine-protein kinase FLT3 (Homo sapiens), P36888 [R834Q]
# [21] = target: Receptor-type tyrosine-protein kinase FLT3 (Homo sapiens) (UniProt P36888)
# [22] = target: Protein kinase C delta type (Homo sapiens) (UniProt Q05655)
# [23] = target: Calcium/calmodulin-dependent protein kinase type IV (Homo sapiens) (UniProt Q16566)
# [24] = target: Activin receptor type-1B (Homo sapiens) (UniProt P36896)
# [25] = target: Protein kinase C epsilon type (Homo sapiens) (UniProt Q02156)
# [26] = target: Cyclin-dependent kinase 18 (Homo sapiens) (UniProt Q07002)
# [27] = target: Mitogen-activated protein kinase kinase kinase 15 (Homo sapiens) (UniProt Q6ZN16)
# [28] = target: Serine/threonine-protein kinase WNK1 (Homo sapiens) (UniProt Q9H4A3)
# [29] = system: Receptor-type tyrosine-protein kinase FLT3 (Homo sapiens), P36888 [D835H]
# [30] = target: Serine/threonine-protein kinase MRCK alpha (Homo sapiens) (UniProt Q5VT25)
# [31] = target: Dual specificity protein kinase CLK3 (Homo sapiens) (UniProt P49761)
# [32] = target: BDNF/NT-3 growth factors receptor (Homo sapiens) (UniProt Q16620)
# [33] = target: G protein-coupled receptor kinase 4 (Homo sapiens) (UniProt P32298)
# [34] = target: Serine/threonine-protein kinase TNNI3K (Homo sapiens) (UniProt Q59H18)
# [35] = target: Receptor tyrosine-protein kinase erbB-4 (Homo sapiens) (UniProt Q15303)
# [36] = target: Platelet-derived growth factor receptor alpha (Homo sapiens) (UniProt P16234)
# [37] = target: Serine/threonine-protein kinase Sgk1 (Homo sapiens) (UniProt O00141)
# [38] = target: Ephrin type-A receptor 3 (Homo sapiens) (UniProt P29320)
# [39] = target: Tyrosine-protein kinase SYK (Homo sapiens) (UniProt P43405)
# [40] = target: 3-phosphoinositide-dependent protein kinase 1 (Homo sapiens) (UniProt O15530)
# [41] = target: Megakaryocyte-associated tyrosine-protein kinase (Homo sapiens) (UniProt P42679)
# [42] = target: Phosphatidylinositol 4-phosphate 5-kinase type-1 gamma (Homo sapiens) (UniProt O60331)
# [43] = system: Epidermal growth factor receptor (Homo sapiens), P00533 [G719S]
# [44] = target: Beta-2 adrenergic receptor (Homo sapiens) (UniProt P07550); details: Compound concentration 10.0 uM
# [45] = target: Serine/threonine-protein kinase 33 (Homo sapiens) (UniProt Q9BYT3)
# [46] = Compound concentration 1000.0 nM
# [47] = Compound concentration 100.0 nM
# Chain of Serine/threonine-protein kinase Nek6 (Homo sapiens) (Q9HC98 whole entry): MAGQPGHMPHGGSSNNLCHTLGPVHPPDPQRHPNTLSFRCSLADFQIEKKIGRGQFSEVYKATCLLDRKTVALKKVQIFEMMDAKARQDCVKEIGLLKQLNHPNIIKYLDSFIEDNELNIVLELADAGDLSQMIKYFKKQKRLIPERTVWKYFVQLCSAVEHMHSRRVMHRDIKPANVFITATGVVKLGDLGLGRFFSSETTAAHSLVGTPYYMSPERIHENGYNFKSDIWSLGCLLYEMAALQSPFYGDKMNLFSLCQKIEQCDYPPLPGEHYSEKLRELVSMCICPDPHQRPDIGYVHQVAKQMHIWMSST
# Chain of Activin receptor type-1B (Homo sapiens) (P36896 whole entry): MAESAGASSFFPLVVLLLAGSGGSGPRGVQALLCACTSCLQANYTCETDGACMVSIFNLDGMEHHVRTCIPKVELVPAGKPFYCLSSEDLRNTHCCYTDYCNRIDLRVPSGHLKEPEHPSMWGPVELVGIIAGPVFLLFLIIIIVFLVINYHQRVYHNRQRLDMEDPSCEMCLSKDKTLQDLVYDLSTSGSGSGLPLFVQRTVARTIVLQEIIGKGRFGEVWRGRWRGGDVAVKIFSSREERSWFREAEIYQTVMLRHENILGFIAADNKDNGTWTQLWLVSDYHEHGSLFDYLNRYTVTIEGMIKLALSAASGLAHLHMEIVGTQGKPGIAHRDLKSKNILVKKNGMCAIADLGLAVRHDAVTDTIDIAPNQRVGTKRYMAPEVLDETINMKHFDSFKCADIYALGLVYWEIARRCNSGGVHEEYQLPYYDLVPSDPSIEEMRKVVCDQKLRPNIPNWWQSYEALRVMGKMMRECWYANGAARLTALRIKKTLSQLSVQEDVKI
# Chain of Protein kinase C delta type (Homo sapiens) (Q05655 whole entry, looked up): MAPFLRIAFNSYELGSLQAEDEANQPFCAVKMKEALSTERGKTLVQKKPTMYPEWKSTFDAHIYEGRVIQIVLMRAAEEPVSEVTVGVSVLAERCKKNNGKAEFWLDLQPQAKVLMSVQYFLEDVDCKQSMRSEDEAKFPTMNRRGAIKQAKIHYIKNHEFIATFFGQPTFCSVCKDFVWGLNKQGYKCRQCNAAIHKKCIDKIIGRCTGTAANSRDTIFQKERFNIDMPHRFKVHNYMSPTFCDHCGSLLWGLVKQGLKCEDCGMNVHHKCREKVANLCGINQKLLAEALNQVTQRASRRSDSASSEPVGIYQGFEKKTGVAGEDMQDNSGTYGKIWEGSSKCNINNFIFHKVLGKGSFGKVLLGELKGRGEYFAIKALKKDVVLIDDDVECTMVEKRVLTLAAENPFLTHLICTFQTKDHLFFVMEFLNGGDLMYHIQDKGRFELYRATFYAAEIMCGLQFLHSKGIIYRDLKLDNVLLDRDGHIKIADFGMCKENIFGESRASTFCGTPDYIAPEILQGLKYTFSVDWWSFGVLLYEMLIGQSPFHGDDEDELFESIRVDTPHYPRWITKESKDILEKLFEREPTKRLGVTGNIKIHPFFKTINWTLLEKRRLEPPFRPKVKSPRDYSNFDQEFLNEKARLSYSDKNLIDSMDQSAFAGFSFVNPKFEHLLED
# Chain of Serine/threonine-protein kinase WNK2 (Homo sapiens) (Q9Y3S1 whole entry): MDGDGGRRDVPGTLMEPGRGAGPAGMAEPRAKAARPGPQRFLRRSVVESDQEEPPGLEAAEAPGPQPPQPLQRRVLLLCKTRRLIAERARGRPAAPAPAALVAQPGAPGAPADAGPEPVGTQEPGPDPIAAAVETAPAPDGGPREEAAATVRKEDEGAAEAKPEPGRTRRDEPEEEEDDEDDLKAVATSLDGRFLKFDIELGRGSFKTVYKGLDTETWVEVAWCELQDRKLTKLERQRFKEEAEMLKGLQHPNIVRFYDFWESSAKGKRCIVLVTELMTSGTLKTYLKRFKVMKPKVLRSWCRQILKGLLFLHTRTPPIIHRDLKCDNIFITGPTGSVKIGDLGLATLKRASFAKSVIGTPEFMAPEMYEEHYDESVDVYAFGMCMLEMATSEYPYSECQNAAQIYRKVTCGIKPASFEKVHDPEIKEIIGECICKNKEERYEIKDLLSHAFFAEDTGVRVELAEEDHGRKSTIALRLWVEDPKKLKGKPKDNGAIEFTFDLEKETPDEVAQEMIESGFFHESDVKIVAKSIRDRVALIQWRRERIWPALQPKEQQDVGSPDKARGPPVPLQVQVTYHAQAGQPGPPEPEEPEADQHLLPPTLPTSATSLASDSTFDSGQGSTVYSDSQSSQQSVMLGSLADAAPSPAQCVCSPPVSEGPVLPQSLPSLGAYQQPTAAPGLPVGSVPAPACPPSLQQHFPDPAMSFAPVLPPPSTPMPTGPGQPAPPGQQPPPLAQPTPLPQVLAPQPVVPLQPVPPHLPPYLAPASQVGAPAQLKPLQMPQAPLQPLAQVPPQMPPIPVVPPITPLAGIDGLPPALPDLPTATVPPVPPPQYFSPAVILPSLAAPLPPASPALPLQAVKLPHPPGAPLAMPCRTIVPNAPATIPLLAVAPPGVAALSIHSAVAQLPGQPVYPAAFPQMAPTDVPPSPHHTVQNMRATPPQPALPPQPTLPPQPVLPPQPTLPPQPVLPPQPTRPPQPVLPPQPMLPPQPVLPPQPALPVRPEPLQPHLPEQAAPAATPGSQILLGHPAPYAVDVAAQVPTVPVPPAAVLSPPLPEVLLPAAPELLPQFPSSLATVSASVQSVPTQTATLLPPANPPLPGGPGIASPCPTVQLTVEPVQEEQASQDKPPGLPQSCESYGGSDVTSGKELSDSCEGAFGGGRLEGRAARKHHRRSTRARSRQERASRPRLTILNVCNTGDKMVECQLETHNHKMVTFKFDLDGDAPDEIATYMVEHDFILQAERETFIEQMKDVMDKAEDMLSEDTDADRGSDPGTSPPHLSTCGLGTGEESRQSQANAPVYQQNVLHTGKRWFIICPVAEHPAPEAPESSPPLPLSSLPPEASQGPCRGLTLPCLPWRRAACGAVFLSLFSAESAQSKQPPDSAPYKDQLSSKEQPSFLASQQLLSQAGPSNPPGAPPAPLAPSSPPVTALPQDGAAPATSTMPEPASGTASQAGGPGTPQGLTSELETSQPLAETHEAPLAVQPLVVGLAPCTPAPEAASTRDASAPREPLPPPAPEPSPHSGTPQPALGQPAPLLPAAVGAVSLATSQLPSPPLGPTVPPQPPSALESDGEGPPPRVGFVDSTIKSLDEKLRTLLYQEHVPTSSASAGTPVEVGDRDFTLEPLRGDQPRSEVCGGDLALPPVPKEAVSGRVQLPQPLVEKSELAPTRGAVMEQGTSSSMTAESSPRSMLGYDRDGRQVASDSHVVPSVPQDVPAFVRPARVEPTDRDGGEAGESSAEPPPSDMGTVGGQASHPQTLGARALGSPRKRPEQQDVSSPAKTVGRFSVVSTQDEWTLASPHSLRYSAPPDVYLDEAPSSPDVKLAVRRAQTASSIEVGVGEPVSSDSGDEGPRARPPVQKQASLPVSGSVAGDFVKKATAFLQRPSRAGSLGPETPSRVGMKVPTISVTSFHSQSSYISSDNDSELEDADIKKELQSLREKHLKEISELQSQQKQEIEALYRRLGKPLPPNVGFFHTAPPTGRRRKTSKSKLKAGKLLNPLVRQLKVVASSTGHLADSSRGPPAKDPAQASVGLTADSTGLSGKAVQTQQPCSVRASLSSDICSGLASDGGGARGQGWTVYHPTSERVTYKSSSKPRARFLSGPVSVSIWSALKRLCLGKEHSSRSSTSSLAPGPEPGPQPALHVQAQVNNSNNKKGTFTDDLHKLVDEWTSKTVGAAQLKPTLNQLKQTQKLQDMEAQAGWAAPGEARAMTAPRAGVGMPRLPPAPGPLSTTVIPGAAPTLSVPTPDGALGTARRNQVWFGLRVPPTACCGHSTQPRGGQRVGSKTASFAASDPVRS
# Chain of STE20-like serine/threonine-protein kinase (Homo sapiens) (Q9H2G2 whole entry, looked up): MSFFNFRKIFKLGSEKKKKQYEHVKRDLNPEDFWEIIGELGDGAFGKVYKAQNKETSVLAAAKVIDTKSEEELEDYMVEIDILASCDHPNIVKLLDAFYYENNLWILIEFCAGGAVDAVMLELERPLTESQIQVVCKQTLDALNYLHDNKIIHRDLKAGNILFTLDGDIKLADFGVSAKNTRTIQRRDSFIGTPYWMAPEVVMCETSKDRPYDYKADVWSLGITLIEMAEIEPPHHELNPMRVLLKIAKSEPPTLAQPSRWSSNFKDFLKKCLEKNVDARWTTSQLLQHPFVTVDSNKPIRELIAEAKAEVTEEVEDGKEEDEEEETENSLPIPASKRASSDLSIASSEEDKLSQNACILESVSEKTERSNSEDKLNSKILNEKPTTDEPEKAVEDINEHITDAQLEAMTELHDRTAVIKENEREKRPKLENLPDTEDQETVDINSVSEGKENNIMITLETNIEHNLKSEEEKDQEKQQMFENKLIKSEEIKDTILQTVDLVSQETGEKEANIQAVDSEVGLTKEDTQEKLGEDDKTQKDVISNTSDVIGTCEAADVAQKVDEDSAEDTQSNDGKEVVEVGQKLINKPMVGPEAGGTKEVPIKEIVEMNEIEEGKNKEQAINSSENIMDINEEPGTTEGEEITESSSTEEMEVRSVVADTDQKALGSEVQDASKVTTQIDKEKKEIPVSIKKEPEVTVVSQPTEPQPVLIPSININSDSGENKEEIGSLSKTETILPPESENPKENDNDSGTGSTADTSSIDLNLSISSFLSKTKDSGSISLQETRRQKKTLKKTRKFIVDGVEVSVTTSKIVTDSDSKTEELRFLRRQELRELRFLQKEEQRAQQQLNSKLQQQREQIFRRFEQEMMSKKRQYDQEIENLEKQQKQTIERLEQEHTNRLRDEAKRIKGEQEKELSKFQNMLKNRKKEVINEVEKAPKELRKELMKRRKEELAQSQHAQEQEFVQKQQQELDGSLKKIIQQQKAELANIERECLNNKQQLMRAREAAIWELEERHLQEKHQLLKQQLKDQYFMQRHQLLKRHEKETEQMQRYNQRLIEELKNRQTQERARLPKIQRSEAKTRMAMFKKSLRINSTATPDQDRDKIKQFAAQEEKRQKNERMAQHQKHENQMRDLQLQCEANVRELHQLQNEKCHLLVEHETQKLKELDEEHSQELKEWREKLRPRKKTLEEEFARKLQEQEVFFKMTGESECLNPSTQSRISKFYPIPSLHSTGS
smiles,measurement,setting,value
CN(C)c1ncnc(-c2ccc3nc(Nc4cc(CN5CCN(C(=O)CC(F)(F)F)CC5)ccn4)[nH]c3c2)c1Cl [BAY-440],residual activity,[1]; [46],100%
same,residual activity,[2]; [46],100%
same,residual activity,[3]; [46],22%
same,residual activity,[4]; [46],100%
same,residual activity,[5]; [46],92%
same,residual activity,[6]; [46],100%
same,residual activity,[7]; [46],71%
same,residual activity,[8]; [46],98%
same,residual activity,[9]; [46],100%
same,residual activity,[10]; [46],100%
same,residual activity,[11]; [46],38%
same,residual activity,[12]; [46],100%
same,residual activity,[13]; [46],38%
same,residual activity,[14]; [46],59%
same,residual activity,[15]; [46],88%
same,residual activity,[16]; [46],100%
same,residual activity,[17]; [46],100%
same,residual activity,[18]; [46],68%
same,residual activity,[19]; [46],74%
same,residual activity,[20]; [46],77%
same,residual activity,[21]; [46],71%
same,residual activity,[22]; [46],100%
same,residual activity,[23]; [46],89%
same,residual activity,[24]; [46],91%
same,residual activity,[25]; [46],100%
same,residual activity,[26]; [46],100%
same,residual activity,[27]; [46],75%
same,residual activity,[28]; [46],86%
same,residual activity,[29]; [46],42%
same,residual activity,[30]; [46],100%
same,residual activity,[31]; [46],100%
same,residual activity,[32]; [46],63%
same,residual activity,[33]; [46],100%
same,residual activity,[34]; [46],50%
same,residual activity,[35]; [46],99%
same,residual activity,[36]; [46],61%
same,residual activity,[37]; [46],37%
same,residual activity,[38]; [46],63%
same,residual activity,[39]; [46],96%
same,residual activity,[40]; [46],100%
same,residual activity,[41]; [46],69%
same,residual activity,[42]; [46],100%
same,residual activity,[43]; [46],79%
same,inhibition,[44],12.6%
same,residual activity,[45]; [46],100%
C[C@H](c1ccnc(Nc2nc3ccc(-c4cc(N(C)C)ncn4)cc3[nH]2)c1)N1CCN(C(=O)CC(F)(F)F)CC1 [BAY-985],residual activity,[1]; [47],100%
same,residual activity,[2]; [47],100%
same,residual activity,[3]; [47],94%
same,residual activity,[4]; [47],68%
same,residual activity,[5]; [47],96%
same,residual activity,[6]; [47],99%
same,residual activity,[7]; [47],100%
same,residual activity,[8]; [47],83%
same,residual activity,[9]; [47],88%
same,residual activity,[10]; [47],98%
same,residual activity,[11]; [47],79%
same,residual activity,[12]; [47],98%
same,residual activity,[13]; [47],41%
same,residual activity,[14]; [47],92%
same,residual activity,[15]; [47],100%
same,residual activity,[16]; [47],99%
same,residual activity,[17]; [47],100%
same,residual activity,[18]; [47],95%
same,residual activity,[19]; [47],95%
same,residual activity,[20]; [47],100%
same,residual activity,[21]; [47],95%
same,residual activity,[22]; [47],100%
same,residual activity,[23]; [47],100%
same,residual activity,[24]; [47],94%
same,residual activity,[25]; [47],96%
same,residual activity,[26]; [47],89%
same,residual activity,[27]; [47],96%
same,residual activity,[28]; [47],100%
same,residual activity,[29]; [47],71%
same,residual activity,[30]; [47],99%
same,residual activity,[31]; [47],100%
same,residual activity,[32]; [47],100%
same,residual activity,[33]; [47],100%
same,residual activity,[34]; [47],59%
same,residual activity,[35]; [47],96%
same,residual activity,[36]; [47],99%
same,residual activity,[37]; [47],94%
same,residual activity,[38]; [47],100%
same,residual activity,[39]; [47],31%
same,residual activity,[40]; [47],76%
same,residual activity,[41]; [47],95%
same,residual activity,[42]; [47],89%
same,residual activity,[43]; [47],91%
same,inhibition,[44],33.3%
same,residual activity,[45]; [47],100%
